biological target: Tissue alpha-L-fucosidase (Bos taurus); test: Compound was tested for the inhibitory activity against alpha-L-fucosidase from bovine epididymis

| Ki | SMILES |
| --- | --- |
| 118 µM | CC1SC(Oc2ccc([N+](=O)[O-])cc2)C(O)C(O)C1O [(3R,4S,5S)-2-Methyl-6-(4-nitro-phenoxy)-tetrahydro-thiopyran-3,4,5-triol] |
| 2300 µM | CSC1SC(C)C(O)C(O)C1O [(3R,4S,5S)-2-Methyl-6-methylsulfanyl-tetrahydro-thiopyran-3,4,5-triol] |
| 690 µM | COC1SC(C)C(O)C(O)C1O [(3S,4S,5R)-2-Methoxy-6-methyl-tetrahydro-thiopyran-3,4,5-triol] |
| 3.3 µM | CC1SC(Sc2ccc([N+](=O)[O-])cc2)C(O)[C@H](O)C1O (stereo partly drawn) [(R)-2-Methyl-6-(4-nitro-phenylsulfanyl)-tetrahydro-thiopyran-3,4,5-triol] |
| 406 µM | CC1SC(OP(=O)(O)O)C(O)C(O)C1O [Sodium; Phosphoric acid mono-((3S,4S,5R)-3,4,5-trihydroxy-6-methyl-tetrahydro-thiopyran-2-yl) ester] |
| 33 µM | CC1SC(OP(=O)(O)OCc2ccccc2)C(O)C(O)C1O (stereo unspecified) [Sodium; benzyl 3,4,5-trihydroxy-6-methyltetrahydro-2H-thiopyran-2-yl hydrogen phosphate] |
